According to PMC11284800 (Journal of Medicinal Chemistry, 2024):
Where “and” joins values, the source holds several entries; their conditions need not be identical. Equal entries are not always repeated. Where two headings read alike, the source gives them in different places.

Assays:
[1] = target: hCB1R; conditions: cited from earlier work
[2] = system: CB2R; conditions: cited from earlier work
[3] = system: CB1R; parameters: method as in PMID 8070571, PMID 27240274, PMID 24175572; conditions: cited from earlier work
[4] = system: CB1R; conditions: cited from earlier work
[5] = system: CB1R; assay: Literature affinity of drug-like ligands, CB1R (Figure 2); type: binding; conditions: from literature Ki values
[6] = target: T1, human CB2R (Homo sapiens, UniProt P34972); assay: [3H]CP55,940 displacement assay on CHO membranes, CB2R; type: binding
T1 construct: host or cells: CHO-K1 (CHOK1hCB2_bgal)
T1 sequence (P34972 whole entry): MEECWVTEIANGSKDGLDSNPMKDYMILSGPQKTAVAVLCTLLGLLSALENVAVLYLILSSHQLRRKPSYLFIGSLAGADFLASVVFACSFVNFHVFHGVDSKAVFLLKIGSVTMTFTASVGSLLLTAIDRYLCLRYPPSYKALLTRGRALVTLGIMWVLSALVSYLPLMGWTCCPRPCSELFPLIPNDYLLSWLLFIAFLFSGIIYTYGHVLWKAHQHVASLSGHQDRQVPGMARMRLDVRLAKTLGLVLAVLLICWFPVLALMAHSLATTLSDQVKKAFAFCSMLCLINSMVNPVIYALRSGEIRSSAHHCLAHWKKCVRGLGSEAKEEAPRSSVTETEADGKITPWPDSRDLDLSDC

[7] = target: T2, hCB1R (Homo sapiens, UniProt P21554); assay: HTRF cAMP assay, antagonist mode (forskolin with CP55,940); conditions: for Emax: read-out: Variation of Emax
Target sequence in this assay (P21554 whole entry): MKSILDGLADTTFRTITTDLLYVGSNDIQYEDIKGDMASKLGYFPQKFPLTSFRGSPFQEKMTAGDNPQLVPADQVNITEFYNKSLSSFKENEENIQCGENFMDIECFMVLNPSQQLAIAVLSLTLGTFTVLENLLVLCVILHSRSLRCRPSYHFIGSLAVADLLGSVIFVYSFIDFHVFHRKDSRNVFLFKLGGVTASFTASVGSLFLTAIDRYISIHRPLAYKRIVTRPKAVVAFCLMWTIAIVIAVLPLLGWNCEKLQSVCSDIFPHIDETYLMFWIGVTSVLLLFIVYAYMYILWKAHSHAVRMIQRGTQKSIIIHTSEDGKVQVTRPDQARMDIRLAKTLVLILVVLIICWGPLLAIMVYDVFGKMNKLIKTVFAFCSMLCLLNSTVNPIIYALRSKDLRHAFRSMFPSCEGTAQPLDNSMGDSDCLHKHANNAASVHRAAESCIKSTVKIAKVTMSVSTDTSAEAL
Protocol: The homogeneous time-resolved fluorescence (HTRF) cAMP assay was conducted following the manufacturer’s protocol for the cAMP-Gs Dynamic kit. […] After 15 min, reactions were stopped by the 1× cAMP-d2 conjugate in lysis buffer (5 μL/well), followed by 1× anti-cAMP cryptate conjugate in lysis buffer (5 μL/well). Following a 1 h incubation at room temperature, the plates were read in a Revvity Envision reader for time-resolved fluorescence resonance energy transfer detection at 620 and 665 nm. The HTRF ratio versus compound concentrations was plotted using Prism 8.1 (GraphPad). HTRF ratio = (signal 665 nm/signal 620 nm) × 10^4.

[8] = Photophysical characterization in PBS; type: physicochemical; conditions: PBS pH 7.4
[9] = target: T2, hCB1R; assay: HTRF cAMP assay, agonist / inverse agonist mode; type: cell-based; parameters: expressed in transfected cells; host or cells: CHO; conditions: for Functional activity at CB1R (in words): CB1R cAMP HTRF assay
Target sequence in this assay (P21554 whole entry): as above

[10] = target: T2, hCB1R; assay: [3H]CP55,940 displacement assay on CHO membranes, CB1R; type: binding; parameters: host or cells: CHO-K1 (CHOK1hCB1_bgal); conditions: for Ki: CHO membranes stably expressing human CB1R, means of three experiments; for Ki(CB2R)/Ki(CB1R): radioligand binding Ki ratio
Target sequence in this assay (P21554 whole entry): as above

[11] = target: T3, CB2R-HEK293TR (Homo sapiens, UniProt P34972); assay: Live cell confocal imaging, CB2R-HEK293TR cells; type: cell-based; conditions: 250 nM probe, induced CB2R expression
T3 construct: expressed in transfected cells; host or cells: HEK293TR (tetracycline-inducible)
T3 sequence (P34972 whole entry): as the sequence (P34972 whole entry) above
Protocol: (§1) Cells were plated onto a 384-well microplate (PhenoPlate, Revvity), at a density of 3500 cells/well (40 μL) with 1 μg/mL tetracycline for receptor-inducible expression and incubated for 48 h. The cell nuclei were stained using 0.9 μM Hoechst 33342 for 1 h incubation. After replacement of medium to serum-free conditions without Phenol red (20 μL), fluorescent probes were added (10 μL) and tested at 250 nM concentration. In case of blocking experiments, nuclei-stained cells were incubated with inhibitors (5 μM) for 30 min under serum-free conditions before probe administration. Confocal live cell imaging was performed using the Opera Phenix High Content Screening System (Revvity) at 22 °C. The probe fluorescence was monitored by kinetic measurements of 10 min with a break for probe administration. The fluorescence of one image per sample was captured using a water immersion objective (63×, NA 1.15, field of view 0.21 × 0.21 mm) at each time point. Probe detection was realized using the appropriate laser for excitation and filter for fluorescence emission. Image acquisition parameters, including laser power, offset, and gain settings, were kept constant.

[12] = system: human CB1R on live SNAP-CB1R-HEK293TR cells; type: cell-based
Protocol: (§2) Human CB1R HEK293TR cells (same transfected cell line as for TR-FRET binding assay was used, see above) were maintained in a humidified environment at 37 °C and 5% CO2 in DMEM with 10% FBS containing blasticidin (5 μg/mL; Invitrogen) and (Zeocin; 20 μg/mL; Invitrogen).
as §1, with “Cells were plated onto a 384-well microplate (PhenoPlate, Revvity), at a density of 3500 cells/well (40 μL) with 1 μg/mL tetracycline for receptor-inducible expression and incubated for 48 h.” left out

[13] = target: T4, human CB1R on live SNAP-CB1R-HEK293TR cells (Homo sapiens, UniProt P21554); type: cell-based; conditions: 250 nM probe
T4 construct: expressed in transfected cells; host or cells: HEK293TR (tetracycline-inducible)
T4 sequence (P21554 91-472): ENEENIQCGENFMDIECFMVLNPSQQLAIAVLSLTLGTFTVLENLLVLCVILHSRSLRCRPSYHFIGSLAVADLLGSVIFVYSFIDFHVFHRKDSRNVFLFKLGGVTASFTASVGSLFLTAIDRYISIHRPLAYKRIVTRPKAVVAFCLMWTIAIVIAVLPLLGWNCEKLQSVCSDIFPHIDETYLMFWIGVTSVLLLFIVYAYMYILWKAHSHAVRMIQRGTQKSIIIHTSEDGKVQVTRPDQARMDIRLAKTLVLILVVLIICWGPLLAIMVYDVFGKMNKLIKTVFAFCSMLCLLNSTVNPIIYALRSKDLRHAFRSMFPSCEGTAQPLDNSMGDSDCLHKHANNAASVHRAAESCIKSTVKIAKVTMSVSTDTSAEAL
Protocol: as §2
as §1, with “Cells were plated onto a 384-well microplate (PhenoPlate, Revvity), at a density of 3500 cells/well (40 μL) with 1 μg/mL tetracycline for receptor-inducible expression and incubated for 48 h.” left out

[14] = target: T2, hCB1R; assay: TR-FRET fluorescent ligand binding (saturation and kinetics), HEK293TR-hCB1R cell membranes; parameters: a truncated CB1R variant, CB1R91-472 was used to facilitate the FRET; expressed in transfected cells; host or cells: HEK293TR (tetracycline-inducible, pcDNA4/TO)
Target sequence in this assay (P21554 91-472): as above

[15] = target: rCB1R; conditions: cited from earlier work
[16] = target: mCB1R; conditions: at 1 μM; cited from earlier work
[17] = target: hCB2R; parameters: method as in PMID 29314831; conditions: cited from earlier work
[18] = target: T2, hCB1R; assay: biochemical
Target sequence in this assay (P21554 91-472): as above

[19] = [3H]CP55,940 displacement at 10 µM compound, ± SEM
[20] = fluorescent probe, direct association kinetics

CCCCCCC(C)(C)c1cc(O)c2c(c1)OC(C)(C)c1ccc(CNCCCCCCNC(=O)CCCCCC[N+]3=C(/C=C/C=C/C=C4/N(C)c5ccc(S(=O)(=O)O)cc5C4(C)C)C(C)(C)c4cc(S(=O)(=O)[O-])ccc43)cc1-2 [ABP511]
Ki [1]: 0.0035 µM

Cc1c(C(=O)NC2CCCCC2)cc(-c2cc(C(F)(F)F)ccc2C(F)(F)F)n1CC1CCCO1 (stereo not drawn) [Compound 5]
IC50 [2]: > 0.08 µM | Functional profile at CB1R (in words) [3]: inverse agonist | IC50 [4]: 0.008 µM

O=C(NN1CCCCC1)c1nn(-c2ccc(Cl)cc2Cl)c2c1CCCc1cc(Cl)ccc1-2 [Compound 7, NESS-0327]
Ki [2]: 0.0557 µM | Functional profile at CB1R (in words) [3]: neutral antagonist | Ki [4]: 0.0042 µM

O=C(NC1CCCCC1O)c1cnc(OCC2CC2)c(-c2ccc(F)cc2)c1 (stereo not drawn) [Compound 8]
Ki [2]: > 10 µM | Functional profile at CB1R (in words) [3]: inverse agonist | Ki [4]: 0.0428 µM

COCCOc1ncc(C(=O)NC[C@](C)(O)C2CC2)nc1-c1ccc(Cl)cc1 [Compound 9]
Ki [2]: > 0.475 µM | Functional profile at CB1R (in words) [3]: inverse agonist | Ki [4]: 0.0475 µM

CC(C)[C@H](NC(=O)c1nn(Cc2cccc(F)c2)c2ccccc12)C(N)=O [Compound 10, AB-FUBINACA 3-F benzyl]
Ki(CB2R)/Ki(CB1R) selectivity [5]: 4 fold | Ki [2]: 0.0525 µM | Functional profile at CB1R (in words) [3]: agonist | Ki [4]: 0.0126 µM

CCC(CC)(NC(=O)c1cc(-c2cc(C(F)(F)F)ccc2C(F)(F)F)n(C[C@H]2CCCO2)c1C)C(=O)NCCOCCOCCNc1ccc([N+](=O)[O-])c2nonc12 [Compound 28, (R)-5-(2,5-Bis(trifluoromethyl)phenyl)-2-methyl-N-(3-((2-(2-(2-((7-nitrobenzo[c][1,2,5]oxadiazol-4-yl)amino)ethoxy)ethoxy)ethyl)carbamoyl)pentan-3-yl)-1-((tetrahydrofuran-2-yl)methyl)-1H-pyrrole-3-carboxamide]
hCB2R % displacement at 10 µM [6, 19]: 41 ± 2% | Ki ([6]; [3H]CP55,940 displacement, CHO membranes stably expressing human CB2R; means of three experiments; read-out: hCB2R Ki): > 10 µM | IC50 [7]: 0.398 µM | Emax [7]: -97% | Abs (absorbance maximum) [8]: 475 nm | Em (emission maximum) [8]: 550 nm | QY (quantum yield) [8]: 1.3% | Emax [9]: -62% | IC50 [9]: 0.0166 µM | Functional activity at CB1R (in words) [9]: inverse agonists | Ki ([10]; hCB1R Ki, [3H]CP55,940 displacement): 0.097 µM | Ki(CB2R)/Ki(CB1R) [10]: > 103

CCC(CC)(NC(=O)c1cc(-c2cc(C(F)(F)F)ccc2C(F)(F)F)n(C[C@H]2CCCO2)c1C)C(=O)NCCOCCOCCNC(=O)c1ccc2c(c1)C(=O)OC21c2ccc(N(C)C)cc2Oc2cc(N(C)C)ccc21 [Compound 29]
hCB2R % displacement at 10 µM [6, 19]: 18 ± 5% | Ki ([6]; read-out: hCB2R Ki; [3H]CP55,940 displacement, CHO membranes stably expressing human CB2R; means of three experiments): > 10 µM | Antagonist activity (cAMP assay) pEC50 or pIC50 ± SEM ([7]; antagonist mode, n.a. is no activity): 5.7 ± 0.16 | Emax [7]: -88% | Staining of CB2R-HEK293TR cells [11]: no staining | Abs (absorbance maximum) [8]: 555 nm | Em (emission maximum) [8]: 585 nm | QY (quantum yield) [8]: 36.60% and 37% | Emax [9]: -64% | Functional activity at CB1R (in words) [9]: inverse agonists | Functional activity CB1R (cAMP assay) pEC50 or pIC50 ± SEM ([9]; inverse agonists, n.a. is no activity): 6.99 ± 0.09 | IC50 ([9]; read-out: Functional activity (cAMP assay) IC50, cells stably expressing hCB1R, HTRF cAMP, inverse agonists, n.a. denotes no activity): 0.102 µM | Staining of uninduced CB1R-HEK293TR cells ([12]; 250 nM probe, no CB1R expression): no staining | Passive permeation of outer cell membrane ([12]; concluded from intracellular staining in live CB1R-HEK293TR cells): able to passively permeate the outer cell membrane | Staining of CB1R on induced CB1R-HEK293TR cells ([13]; confocal microscopy): selectively stain and visualize CB1R | Time to staining of CB1R ([13]; induced CB1R-HEK293TR cells): ≤ 10 min | hCB1R pKi ± SEM ([10]; [3H]CP55,940 displacement, CHO membranes): 5.68 ± 0.29 | Ki(CB2R)/Ki(CB1R) [10]: > 4.8 | Ki ([10]; read-out: hCB1R Ki, [3H]CP55,940 displacement): 2.08 µM | koff [14, 20]: 0.00433 s⁻¹ | kon [14, 20]: 13500 M⁻¹ s⁻¹ | residence time ([14]; fluorescent probe, read-out: RT (residence time)): 3.85 min | Kd ([14]; read-out: kinetic KD, fluorescent probe): 0.365 µM | Kd ([14]; read-out: saturation binding KD, TR-FRET saturation binding after 60 min): 0.335 µM

Cc1c(C(=O)NN2CCCCC2)nn(-c2ccc(Cl)cc2Cl)c1-c1ccc(-c2ccc(CCCNC(=O)c3ccc4c(c3)C(=O)OC43c4ccc(N(C)C)cc4Oc4cc(N(C)C)ccc43)cc2)cc1 [Compound T1117]
Kd [15]: 0.46 ± 0.08 µM | Ki(mCB1R): displacement [16]: 10%

CCCCCCC(C)(C)c1cc(O)c2c(c1)OC(C)(C)[C@@H]1CC=C(CNC(=O)CCCCCNC(=O)c3ccc(-c4c5ccc(=N)c(S(=O)(=O)O)c-5oc5c(S(=O)(=O)O)c(N)ccc45)c(C(=O)O)c3)C[C@@H]21 [HU210-Alexa488]
Ki [17]: 0.8 ± 0.2 µM | Ki [1]: 0.027 ± 0.004 µM

CCCCCCC(C)(C)c1cc(O)c2c(c1)OC(C)(C)[C@@H]1CC=C(CO)C[C@@H]21 [HU210]
Kd [18]: 0.00304 µM | koff [18]: 0.00183 s⁻¹ | kon [18]: 623000 M⁻¹ s⁻¹ | Ki ([18]; Ki): 0.00208 µM and 0.00126 µM | Ki ([18]; pKi): 0.00204 µM | residence time ([18]; read-out: RT (residence time)): 9.1 min
